{
  "source": "patent US20220016215A1",
  "about": "“GIP RECEPTOR AGONIST PEPTIDE COMPOUNDS AND USES THEREOF” (TAKEDA PHAARMACEUTICAL COMPANY LIMITED, priority 2018, published 2022)",
  "key": {"human GIPR": {"target": "T1, human GIPR (Homo sapiens, UniProt P48546)", "T1 construct": "expressed in transfected cells", "T1 sequence (P48546 22-466)": "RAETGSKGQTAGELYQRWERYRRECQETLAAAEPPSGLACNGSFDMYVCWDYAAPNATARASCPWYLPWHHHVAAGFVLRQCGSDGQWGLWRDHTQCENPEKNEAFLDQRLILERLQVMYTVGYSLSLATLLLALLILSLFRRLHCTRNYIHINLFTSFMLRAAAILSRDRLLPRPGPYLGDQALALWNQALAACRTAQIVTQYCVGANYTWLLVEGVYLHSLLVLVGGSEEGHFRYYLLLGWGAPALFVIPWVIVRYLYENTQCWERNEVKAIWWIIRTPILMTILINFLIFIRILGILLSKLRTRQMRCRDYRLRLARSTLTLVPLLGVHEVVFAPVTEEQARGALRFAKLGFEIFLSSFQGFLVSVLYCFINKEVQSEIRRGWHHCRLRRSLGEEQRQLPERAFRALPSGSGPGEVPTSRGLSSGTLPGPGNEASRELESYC", "assay": "Agonist activity on human GIPR, CRE-luciferase reporter assay (increase in intracellular cAMP as indicator)", "format": "cell-based", "settings": "for Selectivity Ratio (B/A): GLP1R EC50 / GIPR EC50; for EC50: hGIPR/CRE-LUC/CHO-K1 cells, 4 h incubation", "how_it_was_run": "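CHO-K1 cells carrying CRE-luciferase and stably expressing human GIPR, 5×10^3 cells/well, exposed to compound for 4 hours at 37° C.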"}, "[1]": {"system": "Y2R agonist-induced emesis in dogs", "format": "in vivo, dog", "settings": "30 nmol/kg s.c.", "protocol": "Example 8 PYY-1119-Induced Vomiting in Dogs\nEmetic episodes were counted for 2 hours after administration (by blinded analysis).\nEmetic episodes were counted for 2 hours after Y2R agonist administration (by blinded analysis)."}, "human GLP-1R": {"target": "human GLP-1R (Homo sapiens, UniProt P43220)", "sequence (P43220 24-463)": "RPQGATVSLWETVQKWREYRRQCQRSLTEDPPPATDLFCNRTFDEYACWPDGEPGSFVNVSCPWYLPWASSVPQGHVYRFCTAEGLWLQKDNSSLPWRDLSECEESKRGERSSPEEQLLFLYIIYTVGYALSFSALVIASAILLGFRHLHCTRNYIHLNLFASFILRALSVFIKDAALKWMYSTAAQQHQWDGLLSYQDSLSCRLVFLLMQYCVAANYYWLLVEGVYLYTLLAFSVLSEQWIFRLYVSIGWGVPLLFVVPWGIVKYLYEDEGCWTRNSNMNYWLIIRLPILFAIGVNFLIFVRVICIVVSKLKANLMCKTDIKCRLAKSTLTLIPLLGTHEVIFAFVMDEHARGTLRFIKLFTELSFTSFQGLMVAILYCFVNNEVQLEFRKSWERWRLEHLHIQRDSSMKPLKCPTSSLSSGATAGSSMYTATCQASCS", "assay": "Agonist activity on human GLP-1R, CRE-luciferase reporter assay (increase in intracellular cAMP as indicator)", "format": "cell-based", "design": "expressed in transfected cells", "settings": "hGLP-1R/CRE-luc/CHO-K1 cells, 4 h incubation", "source_text": "The human GIPR gene having an identical sequence to Genebank Accession No. U39231 is cloned into a pMSRα-neo vector to prepare hGIPR/pMSRα-neo.\n(3) Construction of Reporter Plasmid\nFour copies of a cAMP responsive sequence and a Zeocin resistance gene are transferred to pGL3(R2.2)-Basic Vector (Promega) to construct a Cre-luc(Zeo) reporter plasmid.\n(5) Construction of Expression Plasmid of Human GLP-1R Gene\nThe human GLP-1R gene having an identical sequence to Genebank Accession No. NM_002062 is cloned into a pIRESneo3 vector to prepare hGLP-1/pIRESneo3.\n(6) Transfer of Human GLP-1R Gene and Reporter Plasmid to CHO-K1 Cell and Obtaining of Expressing Cell\nThe Cre-luc (Zeo) obtained in (3) and the plasmid hGLP-1/pIRESneo3 obtained in (5) transferred to the CHO-K1 cell to obtain a transformant. Subsequently, the cell line inducing the luciferase expression, hGLP-1R/CRE-luc/CHO-K1 cell, is selected from the obtained transformant by adding GLP-1.\nThe GLP-1R agonist activity is assayed in the same manner as above using the hGLP-1R/CRE-luc/CHO-K1 cell."}, "[2]": {"system": "morphine (0.6 mg/kg, s.c.)-induced emesis in ferrets", "assay": "Morphine-induced acute emetic model in male ferrets", "format": "in vivo, ferret", "how_it_was_run": "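Male ferrets (4 per group) received peptide at 10 or 30 nmol/kg s.c. in 0.09% Tween 80/10% DMSO/saline, or vehicle. Morphine 0.6 mg/kg s.c. was given 4 or 120 h later, and abdominal contractions, vomiting, licking and fidgeting were recorded for up to 360 min.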"}, "[3]": {"settings": "female beagle dogs, Y2R agonist 10 μg/kg s.c. at 8 hours postdose"}, "[4]": {"settings": "female beagle dogs, Y2R agonist 10 μg/kg s.c. at 8 hours postdose, counted for 2 hours"}, "[5]": {"settings": "ferret, morphine 0.6 mg/kg s.c. 0.5 h after drug, 128 μg/kg s.c."}, "[6]": {"settings": "ferret, morphine 0.6 mg/kg s.c. 0.5 h after drug, 128 μg/kg s.c., non-responders counted as 30 min"}},
  "note": "Where two headings read alike, the source gives them in different places.",
  "data": [
    {"compound": "YAibEGTFISDYSIALDK(Lys-(ethylene glycol)2-C15 diacid)HQQDFVNWLLAQRG-OH [Compound 26]", "values": [
      {"measurement": "Selectivity Ratio (B/A)", "setting": "human GIPR", "value": ">100,000"},
      {"measurement": "Anti-emetic effects in animal models of emesis (dogs) (in words)", "setting": "[1]; dogs, Tables 16 and 17", "value": "significant anti-emetic effects"},
      {"measurement": "Duration of emesis", "setting": "[1]; [3]", "value": "0.0 ± 0.0", "unit": "min"},
      {"measurement": "Latency period of emesis", "setting": "[1]; [3]", "value": "92.3 ± 55.5", "unit": "min"},
      {"measurement": "No. of animals that did not vomit", "setting": "[1]; [4]", "value": 3},
      {"measurement": "No. of emetic episodes", "setting": "[1]; [4]", "value": "0.3 ± 0.5"},
      {"measurement": "No. of emetic episodes, % Inhibition", "setting": "[1]; female beagle dogs, Y2R agonist at 8 hours postdose, decreased ratio of mean emetic episodes vs vehicle group", "value": "[96.6%]"}
    ]},
    {"compound": "CC[C@H](C)[C@H](NC(=O)[C@H](CC(C)C)NC(=O)[C@H](Cc1c[nH]c2ccccc12)NC(=O)[C@H](CCC(N)=O)NC(=O)[C@@H](NC(=O)[C@H](Cc1ccccc1)NC(=O)[C@H](C)NC(=O)[C@H](CCCNC(=N)N)NC(=O)[C@H](CCC(N)=O)NC(=O)[C@H](C)NC(=O)[C@@H](NC(=O)[C@H](CCCCN)NC(=O)[C@H](CC(=O)O)NC(=O)[C@H](CC(C)C)NC(=O)C(C)(C)NC(=O)[C@@H](NC(=O)[C@H](CO)NC(=O)[C@H](Cc1ccc(O)cc1)NC(=O)[C@H](CC(=O)O)NC(=O)[C@H](CO)NC(=O)[C@@H](NC(=O)[C@H](Cc1ccccc1)NC(=O)[C@@H](NC(=O)CNC(=O)[C@H](CCC(=O)O)NC(=O)C(C)(C)NC(=O)[C@@H](N)Cc1ccc(O)cc1)[C@@H](C)O)[C@@H](C)O)[C@@H](C)CC)[C@@H](C)CC)C(C)C)C(=O)N[C@@H](C)C(=O)NC(C)(C)C(=O)N[C@@H](CCCCN)C(=O)NCC(=O)N[C@@H](CCCCN)C(=O)N[C@@H](CCCCN)C(=O)N[C@@H](CCC(N)=O)C(=O)N[C@@H](CCC(=O)O)C(=O)N[C@@H](Cc1c[nH]c2ccccc12)C(=O)N[C@@H](CCCCN)C(=O)N[C@@H](Cc1c[nH]cn1)C(=O)N[C@@H](CCC(N)=O)C(=O)N[C@H](C(=O)N[C@H](C(=O)N[C@@H](CCC(N)=O)C(=O)N[C@@H](CCCCNC(C)=O)C(N)=O)[C@@H](C)O)[C@@H](C)CC", "note": "[Compound 16]", "values": [
      {"measurement": "Selectivity Ratio (B/A)", "setting": "human GIPR", "value": 20},
      {"measurement": "EC50", "setting": "human GIPR; read-out: GIPR pEC50 (converted)", "value": 0.001, "unit": "nM"},
      {"measurement": "EC50", "setting": "human GLP-1R; read-out: GLP1R EC50 nM (B)", "value": "< 0.02", "unit": "nM"},
      {"measurement": "EC50", "setting": "human GLP-1R; read-out: GLP1R pEC50 (converted)", "value": 0.017, "unit": "nM"}
    ]},
    {"compound": "CC[C@H](C)[C@H](NC(=O)[C@H](CO)NC(=O)[C@H](Cc1ccc(O)cc1)NC(=O)[C@H](CC(=O)O)NC(=O)[C@H](CO)NC(=O)[C@@H](NC(=O)[C@H](Cc1ccccc1)NC(=O)[C@@H](NC(=O)CNC(=O)[C@@H]1CCCN1C(=O)[C@H](C)NC(=O)[C@@H](N)Cc1ccc(O)cc1)[C@@H](C)O)[C@@H](C)CC)C(=O)N[C@@H](C)C(=O)N[C@@H](CCSC)C(=O)N[C@@H](CC(=O)O)C(=O)N[C@@H](CCCCN)C(=O)N[C@H](C(=O)N[C@@H](Cc1c[nH]cn1)C(=O)N[C@@H](CCC(N)=O)C(=O)N[C@@H](CCC(N)=O)C(=O)N[C@@H](CC(=O)O)C(=O)N[C@@H](Cc1ccccc1)C(=O)N[C@H](C(=O)N[C@@H](CC(N)=O)C(=O)N[C@@H](Cc1c[nH]c2ccccc12)C(=O)N[C@@H](CC(C)C)C(=O)N[C@@H](CC(C)C)C(=O)N[C@@H](C)C(=O)N[C@@H](CCC(N)=O)C(=O)N[C@@H](CCCCN)C(=O)N1CCC[C@H]1C(=O)N[C@@H](CO)C(=O)N[C@@H](CO)C(=O)NCC(=O)N[C@@H](C)C(=O)N1CCC[C@H]1C(=O)N1CCC[C@H]1C(=O)N1CCC[C@H]1C(=O)N[C@@H](CO)C(N)=O)C(C)C)[C@@H](C)CC", "note": "[Compound 12]", "values": [
      {"measurement": "Selectivity Ratio (B/A)", "setting": "human GIPR", "value": ">23,810"},
      {"measurement": "EC50", "setting": "human GIPR; read-out: GIPR EC50 nM (A)", "value": 0.042, "unit": "nM"},
      {"measurement": "Emesis: Duration", "setting": "[2]; [5]", "value": "1.5 ± 2.4", "unit": "min"},
      {"measurement": "Emesis: Frequency", "setting": "[2]; [5]", "value": "3.8 ± 5.7"},
      {"measurement": "Emesis: No. of animals (responder/used)", "setting": "[2]; [5]", "value": "2/4"},
      {"measurement": "Fidget: Duration", "setting": "[2]; [5]", "value": "1.3 ± 1.9", "unit": "min"},
      {"measurement": "Fidget: Frequency", "setting": "[2]; [5]", "value": "0.8 ± 1.0"},
      {"measurement": "Fidget: No. of animals (responder/used)", "setting": "[2]; [5]", "value": "2/4"},
      {"measurement": "Licking: Duration", "setting": "[2]; [5]", "value": "1.5 ± 1.7", "unit": "min"},
      {"measurement": "Licking: Frequency", "setting": "[2]; [5]", "value": "1.3 ± 1.0"},
      {"measurement": "Licking: No. of animals (responder/used)", "setting": "[2]; [5]", "value": "3/4"},
      {"measurement": "Retching: Duration", "setting": "[2]; [5]", "value": "1.5 ± 2.4", "unit": "min"},
      {"measurement": "Retching: Frequency", "setting": "[2]; [5]", "value": "3.3 ± 5.3"},
      {"measurement": "Retching: No. of animals (responder/used)", "setting": "[2]; [5]", "value": "2/4"},
      {"measurement": "Vomiting: Duration", "setting": "[2]; [5]", "value": "0.5 ± 0.6", "unit": "min"},
      {"measurement": "Vomiting: Frequency", "setting": "[2]; [5]", "value": "0.5 ± 0.6"},
      {"measurement": "Vomiting: No. of animals (responder/used)", "setting": "[2]; [5]", "value": "2/4"},
      {"measurement": "Emesis: Latency", "setting": "[2]; [6]", "value": "18.3 ± 13.7", "unit": "min"},
      {"measurement": "Fidget: Latency", "setting": "[2]; [6]", "value": "18.3 ± 13.7", "unit": "min"},
      {"measurement": "Licking: Latency", "setting": "[2]; [6]", "value": "13.8 ± 11.3", "unit": "min"},
      {"measurement": "Retching: Latency", "setting": "[2]; [6]", "value": "18.3 ± 13.7", "unit": "min"},
      {"measurement": "Vomiting: Latency", "setting": "[2]; [6]", "value": "19.5 ± 12.1", "unit": "min"},
      {"measurement": "Attenuation of morphine-induced emesis (in words)", "setting": "[2]; male ferrets, 30 nmol/kg s.c. 30 minutes before morphine 0.6 mg/kg s.c.", "value": "completely attenuated"},
      {"measurement": "Comment: Anti-Emetic Activity (inhibition) on morphine-induced emesis", "setting": "[2]; male ferrets, summary of the morphine experiments", "value": "partial inhibition"},
      {"measurement": "EC50", "setting": "human GLP-1R; read-out: GLP1R EC50 nM (B)", "value": "> 1000", "unit": "nM"}
    ]}
  ]
}
